Earlier results, collected in patent US20080058642A1, “METHOD FOR DETECTING CORONARY ENDOTHELIAL DYSFUNCTION AND EARLY ATHEROSCLEROSIS” (BOARD OF REGENTS OF THE UNIVERSITY OF TEXAS SYSTEM, priority 2006, published 2008).

Biological target: T1, ETA-receptor (Homo sapiens, UniProt P25101)
T1 construct: host or cells: in vivo, heart failure trial
T1 sequence (P25101 21-427): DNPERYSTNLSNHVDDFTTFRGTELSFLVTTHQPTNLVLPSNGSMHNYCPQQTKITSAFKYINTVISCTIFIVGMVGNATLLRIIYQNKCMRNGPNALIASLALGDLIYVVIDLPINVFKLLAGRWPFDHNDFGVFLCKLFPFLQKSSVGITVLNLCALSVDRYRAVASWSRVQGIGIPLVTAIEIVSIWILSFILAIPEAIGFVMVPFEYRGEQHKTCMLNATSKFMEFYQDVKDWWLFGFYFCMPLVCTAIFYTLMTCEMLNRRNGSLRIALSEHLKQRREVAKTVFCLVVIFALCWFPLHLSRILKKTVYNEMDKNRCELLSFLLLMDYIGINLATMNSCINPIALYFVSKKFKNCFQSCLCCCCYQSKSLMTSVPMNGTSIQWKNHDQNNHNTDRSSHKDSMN
Conditions: recent randomized trial; cited from earlier work

SMILES: COc1cc(OC)nc(O[C@H](C(=O)O)C(OC)(c2ccccc2)c2ccccc2)n1 [Darusentan™]
- benefit in heart failure: no benefit
